{
  "source": "paper PMC3830934",
  "about": "(Science (New York, N.Y.), 2002)",
  "target": "T1, human DHFR (Homo sapiens, UniProt P00374)",
  "T1 sequence (P00374 1-187)": "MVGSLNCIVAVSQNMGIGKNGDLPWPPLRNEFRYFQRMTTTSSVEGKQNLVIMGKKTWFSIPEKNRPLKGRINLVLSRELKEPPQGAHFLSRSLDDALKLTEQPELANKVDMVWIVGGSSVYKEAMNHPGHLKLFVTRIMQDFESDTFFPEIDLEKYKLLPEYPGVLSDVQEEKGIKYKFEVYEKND",
  "assay": "enzyme kinetic assay",
  "format": "biochemical",
  "data": [
    {"smiles": "CC1(C)N=C(N)N=C(N)N1OCCCOc1cc(Cl)c(Cl)cc1Cl", "note": "[WR99210]", "values": [
      {"measurement": "Ki", "result": 12, "unit": "nM"}
    ]}
  ]
}
